pIC50: −log10 of the molar value. Where only a bound is given, the exact number is not on record here.

As usually defined, the pIC50 is the negative decadic logarithm of the IC50, by convention in mol/L. As usually defined, the GI50 is the concentration giving 50% growth inhibition. Lower therefore signals more potent growth inhibition.

For one test, the target named is human G9a enzyme (Homo sapiens (Human), UniProt Q96KQ7). As to the kind of experiment: G9a enzyme activity assay (TR-FRET). Type of test: biochemical. Conditions: 1 hour at room temperature. As for the experimental part:
G9a Enzyme Activity Assay
The biochemical assay to measure G9a enzyme activity relies on time-resolved fluorescence energy transfer (TR-FRET) between europium cryptate (donor) and XL665 (acceptor). TR-FRET is observed when biotinylated histone monomethyl-H3K9 peptide is incubated with cryptate-labeled anti-dimethyl-histone H3K9 antibody (CisBio Cat#61KB2KAE) and streptavidin XL665 (CisBio Cat#610SAXLA), after enzymatic reaction of G9a.
The human G9a enzyme expressed in a baculovirus infected Sf9 cell expression system was obtained from BPS Biosciences (Cat. #51001). Enzyme activity assay was carried out in a white 384-well plate in a final volume of 20 μl, as follow: • 4 μl of vehicle or studied compound 2.5× concentrated prepared in assay buffer (50 mM Tris-HCl, 10 mM NaCl, 4 mM DTT, 0.01% Tween-20 pH9). Final percentage of DMSO was 0.5%. • 2 μl of 1 nM G9a enzyme diluted in assay buffer. Final concentration was 0.2 nM. • Start the reaction by adding 4 μl of substrate mixture containing 20 μM S-adenosylmethionine and 40 nM biotinylated histone monomethyl-H3K9 peptide. • Reaction was carried out during 1 hour at room temperature. • Enzyme activity was stopped by adding 5 μl of cryptate-labeled anti-dimethyl-histone H3K9 antibody. Final concentration 150 nM. • Then, add 5 μl of streptavidin XL665 beads. Final concentration of 16 μM. • Read the plate after 1 hour of incubation at room temperature.
(§1) For each well, fluorescence was measured at 620 nm and 665 nm. A ratio (665 nm/620 nm) was then calculated in order to minimize medium interferences. Positive control was obtained in the presence of the vehicle of the compounds. Negative control was obtained in the absence of G9a enzyme activity. Calculated IC50 values were determined using GraphPrism using 4-parameters inhibition curve.
In general terms: In TR-FRET formats the signal depends on donor and acceptor labels being close together.

In a further test the target is human DNMT1 (Homo sapiens (Human), UniProt P26358). The test is described as follows: DNMT1 enzyme activity assay (TR-FRET, EPIgeneous methyltransferase assay). Type of test: biochemical. Particulars: 15 minutes at 37° C. As for the experimental part:
DNMT1 Enzyme Activity Assay
The biochemical assay to measure DNMT1 enzyme activity relies on time-resolved fluorescence energy transfer (TR-FRET) between lumi4-Tb (donor) and d2 (acceptor) using the EPlgeneous methyltransferase assay (CisBio Cat#62SAHPEB). TR-FRET is observed when antibody specific to S-adenosylhomocysteine labeled with Lumi4-Tb is incubated with d2-labeled S-adenosylhomocysteine. TR-FRET signal is inversely proportional to the concentration of SAH, product of DNMT1 enzyme activity, in the sample. The human DNMT1 was obtained from Reaction Biology Corp. (Cat# DMT-21-124).
Enzyme activity assay was carried out in a white 384-well plate in a final volume of 20 μl, as follow: • 4 μl of vehicle or studied compound 2.5× concentrated prepared in assay buffer (50 mM Tris-HCl, 1 mM EDTA, 1 mM DTT, 0.1% Triton X-100, 5% glycerol pH 7.5). Final percentage of DMSO was 0.5%. • 2 μl of […] DNMT1 enzyme diluted in assay buffer. Final concentration was 20 nM. • Start the reaction by adding 4 μl of substrate mixture containing 1 μM S-adenosylmethionine and 1 μM poly-deoxy inosine poly-deoxy cytosine (pdI-pdC) DNA. • Reaction was carried out during 15 minutes at 37° C. • Enzyme activity was stopped by adding 2 μl of buffer one of the EPIgeneous methyltransferase assay. • After 10 minutes at room temperature, it was added 4 μl of antibody specific to S-adenosylhomocysteine labeled with Lumi4-Tb 50× diluted in buffer two of the EPIgeneous methyltransferase assay. • Add 4 μl of d2-labeled S-adenosylhomocysteine 31× diluted in buffer two of the EPIgeneous methyltransferase assay. • Read the plate after 1 hour of incubation at room temperature.
as §1

Test [1] concerns CEMO-1 cells (acute lymphocytic leukemia, ALL). The test is described as follows: Cell proliferation assay (CellTiter 96 Aqueous One), CEMO-1. Type of test: cell-based. Conditions: CEMO-1 (ALL), 48 hours of treatment. As for the experimental part: Cell proliferation was analyzed after 48 hours of in vitro treatment using the CellTiter 96 Aqueous One Solution Cell Proliferation Assay (Promega, Madison, W). This is a colorimetric method for determining the number of viable cells in proliferation.
For the assay, suspension cells were cultured by triplicate at a density of 1×10^6 cells/ml in 96-well plates (100.000 cells/well, 100 μl/well), except for OCI-Ly3 and OCI-Ly10 cell lines which were cultured at a density of 0.5×10^6 cells/ml (50,000 cells/well, 100 μl/well) and for HepG2, Hep3B and PLC/PRF/5 cell lines which were cultured at a density of 3000 cells/well, 100 μl/well). Adherent cells were obtained from 80-90% confluent flasks and 100 μl of cells were seeded at a density of 5000 cells/well in 96-well plates by triplicate. Before addition of the compounds, adherent cells were allowed to attach to the bottom of the wells for 12 hours. In all cases, only the 60 inner wells were used to avoid any border effects.
After 48 hours of treatment, plates with suspension cells were centrifuged at 800 g for 10 minutes and medium was removed. The plates with adherent cells were flicked to remove medium. Then, cells were incubated with 100 μl/well of medium and 20 μl/well of CellTiter 96 Aqueous One Solution reagent. After 1-3 hours of incubation at 37° C., absorbance was measured at 490 nm in a 96-well plate reader. The background absorbance was measured in wells with only cell line medium and solution reagent. Data was calculated as a percentage of total absorbance of treated cell/absorbance of non treated cells.
These cancer cell lines and primary cultures correspond to acute lymphocytic leukemia (ALL), CEMO-1, to activated B-cell-like diffuse large B-cell lymphoma (ABC-DLBCL), OCI-Ly3 and OCI-Ly10 and to hepatocellular carcinoma cells (HCC), HepG2, Hep3B and PLC/PRF/5.

Sequence of human G9a enzyme (Q96KQ7 whole entry): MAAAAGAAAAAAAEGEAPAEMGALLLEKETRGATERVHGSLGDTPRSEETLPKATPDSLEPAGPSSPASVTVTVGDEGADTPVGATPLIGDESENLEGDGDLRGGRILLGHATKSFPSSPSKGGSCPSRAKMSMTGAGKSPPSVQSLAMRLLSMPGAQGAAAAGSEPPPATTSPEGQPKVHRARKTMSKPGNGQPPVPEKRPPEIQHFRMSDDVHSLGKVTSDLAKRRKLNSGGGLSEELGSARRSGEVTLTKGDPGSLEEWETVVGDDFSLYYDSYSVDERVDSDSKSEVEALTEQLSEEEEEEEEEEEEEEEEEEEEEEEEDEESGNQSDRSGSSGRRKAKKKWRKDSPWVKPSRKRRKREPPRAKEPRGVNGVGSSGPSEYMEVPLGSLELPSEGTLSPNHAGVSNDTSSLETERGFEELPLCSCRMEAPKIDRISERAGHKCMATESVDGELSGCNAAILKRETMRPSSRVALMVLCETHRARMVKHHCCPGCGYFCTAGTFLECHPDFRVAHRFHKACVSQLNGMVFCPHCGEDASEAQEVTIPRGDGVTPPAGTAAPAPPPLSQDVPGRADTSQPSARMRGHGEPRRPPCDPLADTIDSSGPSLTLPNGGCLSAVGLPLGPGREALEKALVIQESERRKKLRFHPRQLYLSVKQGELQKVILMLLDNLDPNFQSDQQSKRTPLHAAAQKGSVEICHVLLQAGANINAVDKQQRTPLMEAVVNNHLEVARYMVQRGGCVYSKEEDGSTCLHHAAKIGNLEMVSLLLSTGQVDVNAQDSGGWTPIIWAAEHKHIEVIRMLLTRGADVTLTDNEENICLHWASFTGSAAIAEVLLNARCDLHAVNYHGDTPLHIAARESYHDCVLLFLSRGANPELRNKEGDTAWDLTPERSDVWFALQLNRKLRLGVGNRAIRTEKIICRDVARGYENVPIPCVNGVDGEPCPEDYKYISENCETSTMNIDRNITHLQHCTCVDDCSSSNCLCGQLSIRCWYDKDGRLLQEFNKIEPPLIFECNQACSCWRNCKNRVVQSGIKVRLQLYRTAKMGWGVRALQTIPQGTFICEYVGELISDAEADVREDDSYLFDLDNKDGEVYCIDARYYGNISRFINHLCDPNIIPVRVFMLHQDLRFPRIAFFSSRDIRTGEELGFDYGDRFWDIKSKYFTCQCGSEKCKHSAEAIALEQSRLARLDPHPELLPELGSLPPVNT
Sequence of human DNMT1 (P26358 whole entry): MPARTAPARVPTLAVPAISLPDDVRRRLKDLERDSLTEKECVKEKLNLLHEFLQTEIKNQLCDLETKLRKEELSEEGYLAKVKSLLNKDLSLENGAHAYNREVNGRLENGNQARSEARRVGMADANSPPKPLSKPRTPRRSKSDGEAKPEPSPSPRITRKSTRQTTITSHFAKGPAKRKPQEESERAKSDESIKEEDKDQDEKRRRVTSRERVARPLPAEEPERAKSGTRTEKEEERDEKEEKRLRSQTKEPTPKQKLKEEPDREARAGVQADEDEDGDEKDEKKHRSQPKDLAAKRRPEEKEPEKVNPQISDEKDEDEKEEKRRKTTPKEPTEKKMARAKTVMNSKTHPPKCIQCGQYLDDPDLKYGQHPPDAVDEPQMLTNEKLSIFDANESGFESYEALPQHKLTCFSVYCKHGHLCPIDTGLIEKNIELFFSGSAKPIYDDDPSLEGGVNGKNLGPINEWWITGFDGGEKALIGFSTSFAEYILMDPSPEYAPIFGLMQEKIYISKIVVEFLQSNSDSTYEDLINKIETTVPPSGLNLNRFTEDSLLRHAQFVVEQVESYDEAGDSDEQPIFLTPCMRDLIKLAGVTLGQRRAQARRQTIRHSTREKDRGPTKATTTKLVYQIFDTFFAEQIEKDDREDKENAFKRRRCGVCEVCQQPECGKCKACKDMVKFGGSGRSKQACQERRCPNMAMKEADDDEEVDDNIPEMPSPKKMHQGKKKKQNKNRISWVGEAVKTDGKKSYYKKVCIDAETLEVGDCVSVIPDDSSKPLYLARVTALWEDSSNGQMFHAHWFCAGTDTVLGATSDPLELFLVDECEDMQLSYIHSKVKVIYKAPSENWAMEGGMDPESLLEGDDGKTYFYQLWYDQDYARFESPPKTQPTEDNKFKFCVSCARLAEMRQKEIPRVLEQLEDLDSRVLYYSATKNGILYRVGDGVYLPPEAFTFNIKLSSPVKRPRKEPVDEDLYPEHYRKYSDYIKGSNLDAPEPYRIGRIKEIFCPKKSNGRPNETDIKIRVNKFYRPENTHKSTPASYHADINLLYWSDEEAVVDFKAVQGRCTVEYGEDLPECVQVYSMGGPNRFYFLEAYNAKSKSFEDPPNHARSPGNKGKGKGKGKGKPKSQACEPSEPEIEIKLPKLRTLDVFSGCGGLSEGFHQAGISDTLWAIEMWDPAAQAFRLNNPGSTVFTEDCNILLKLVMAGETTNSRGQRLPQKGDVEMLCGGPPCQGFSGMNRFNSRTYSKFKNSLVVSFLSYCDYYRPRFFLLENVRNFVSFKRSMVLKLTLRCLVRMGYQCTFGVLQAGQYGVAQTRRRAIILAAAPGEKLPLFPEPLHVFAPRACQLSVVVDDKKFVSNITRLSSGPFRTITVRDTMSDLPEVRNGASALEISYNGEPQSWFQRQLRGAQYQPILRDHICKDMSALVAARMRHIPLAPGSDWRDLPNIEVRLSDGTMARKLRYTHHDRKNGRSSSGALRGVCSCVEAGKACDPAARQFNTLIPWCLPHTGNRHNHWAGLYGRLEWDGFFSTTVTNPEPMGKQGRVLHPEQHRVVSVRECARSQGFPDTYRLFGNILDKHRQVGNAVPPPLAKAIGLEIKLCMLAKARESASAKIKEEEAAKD

Turning to `COc1cc2c(cc1OCCCN1CCCC1)nc(-c1ccc(C)o1)c1c(=O)n(CC3CCN(C)CC3)[nH]c12` [Compound 4-04, 8-methoxy-4-(5-methyl-2-furyl)-2-[(1-methyl-4-piperidyl)methyl]-7-(3-pyrrolidin-1-ylpropoxy)-1H-pyrazolo[4,3-c]quinolin-3-one], the pIC50 is less than 5.00 at human G9a enzyme and 5.00 to 6.00 against human DNMT1.
Regarding `COc1cc2c(cc1OCCCN1CCCC1)nc(-c1ccccc1)c1cc(CC3CCN(C)CC3)[nH]c12` [Compound 1-05], the pIC50 against human G9a enzyme is 6.30 to 7.00; at human DNMT1, 6.00 to 6.30.
In the same order, the values of `COc1cc2c3c(c(-c4cc(C)oc4C)nc2cc1OCCCN1CCCC1)CCC(CC1CCN(C)CC1)N3` (stereo not shown) [Compound 2-13, 9-methoxy-5-(2,5-dimethyl-3-furyl)-2-[(1-methyl-4-piperidyl)methyl]-8-(3-pyrrolidin-1-ylpropoxy)-1,2,3,4-tetrahydrobenzo[h][1,6]naphthyridine] are greater than 7.00 and 5.00 to 6.00.
In the same order, the values of `COc1cc2c(cc1OCCCN1CCCC1)nc(-c1ccc(C)o1)c1cccnc12` [Compound 3-01, 9-methoxy-5-(5-methyl-2-furyl)-8-(3-pyrrolidin-1-ylpropoxy)benzo[h]-[1,6]naphthyridine] are 5.00 to 6.00 and 5.00 to 6.00.
In the same order, the values of `COc1cc2c(cc1OCCCN1CCCC1)nc(-c1cc(C)oc1C)c1cc(CC3CCN(C)CC3)[nH]c12` [Compound 1-06] are 6.00 to 6.30 and 5.00 to 6.00.
With `COc1cc2c3c(c(-c4ccc(C)o4)nc2cc1OCCCN1CCCC1)CCC(CC1CCNCC1)N3` (stereo not shown) [Compound 2-05, 9-methoxy-5-(5-methyl-2-furyl)-2-(4-piperidylmethyl)-8-(3-pyrrolidin-1-ylpropoxy)-1,2,3,4-tetrahydrobenzo[h][1,6]naphthyridine], the pIC50 on human G9a enzyme was greater than 7.00; against human DNMT1, 6.00 to 6.30.
The matching figures for `COc1cc2c(cc1OCCCN1CCCC1)nc(-c1ccc(C)o1)c1ccc(CC3CCN(C)CC3)nc12` [Compound 3-03, 9-methoxy-5-(5-methyl-2-furyl)-2-[(1-methyl-4-piperidyl)methyl]-8-(3-pyrrolidin-1-ylpropoxy)benzo[h][1,6]naphthyridine]: greater than 7.00 and 5.00 to 6.00.
In the case of `COc1cc2c3c(c(-c4ccc(C)o4)nc2cc1OCCCN1CCCC1)CCCN3` [Compound 2-03, 9-methoxy-5-(5-methyl-2-furyl)-8-(3-pyrrolidin-1-ylpropoxy)-1,2,3,4-tetrahydrobenzo[h][1,6]naphthyridine], the results for the pIC50 at human G9a enzyme and at human DNMT1 were greater than 7.00 and 5.00 to 6.00, respectively. Further, the GI50 in test [1] is 1 to 10 µM.
Turning to `COc1cc2c3c(c(-c4ccc(C)o4)nc2cc1OCCCN1CCCC1)CCC(CC1CCN(C(C)=O)CC1)N3` (stereo not shown) [Compound 2-11, 1-[4-[[9-methoxy-5-(5-methyl-2-furyl)-8-(3-pyrrolidin-1-ylpropoxy)-1,2,3,4-tetrahydrobenzo[h][1,6]naphthyridin-2-yl]methyl]-1-piperidyl]ethanone], the results for the pIC50 on human G9a enzyme and on human DNMT1 were greater than 7.00 and 5.00 to 6.00, respectively.
For `COc1cc2c(cc1OCCCN1CCCC1)nc(-c1ccc(C)o1)c1c(=O)n(C3CCN(C)CC3)[nH]c12` [Compound 4-03, 8-methoxy-4-(5-methyl-2-furyl)-2-(1-methyl-4-piperidyl)-7-(3-pyrrolidin-1-ylpropoxy)-1H-pyrazolo[4,3-c]quinolin-3-one], the negative logarithm of the IC50 (pIC50) is less than 5.00 on human G9a enzyme and 5.00 to 6.00 against human DNMT1.
The matching figures for `Cc1ccc(-c2nc3cc(OCCCN4CCCC4)ccc3c3c2CCCN3)o1` [Compound 2-02, 5-(5-methyl-2-furyl)-8-(3-pyrrolidin-1-ylpropoxy)-1,2,3,4-tetrahydrobenzo[h][1,6]naphthyridine]: 5.00 to 6.00 and 6.00 to 6.30.
For the compound `COc1cc2c(cc1OCCCN1CCCC1)nc(-c1cc(C)oc1C)c1ccc(CC3CCN(C)CC3)nc12` [Compound 3-04, 9-methoxy-5-(2,5-dimethyl-3-furyl)-2-[(1-methyl-4-piperidyl)methyl]-8-(3-pyrrolidin-1-ylpropoxy)benzo[h][1,6-]naphthyridine], the negative logarithm of the IC50 (pIC50) at human G9a enzyme was 6.30 to 7.00; on human DNMT1, less than 5.00.
`COc1cc2c(cc1OCCCN1CCCC1)nc(-c1ccc(C)o1)c1ccc(CC3CCNCC3)nc12` [Compound 3-02, 9-methoxy-5-(5-methyl-2-furyl)-2-(4-piperidylmethyl)-8-(3-pyrrolidin-1-ylpropoxy)benzo[h][1,6]naphthyridine]: the pIC50 at human G9a enzyme was 6.30 to 7.00; at human DNMT1, 6.00 to 6.30.
The matching figures for `COc1cc2c(cc1OCCCN1CCCC1)nc(-c1ccc(C)o1)c1c(=O)n(CC3CCN(C)CC3)n(CC3CCN(C)CC3)c12` [Compound 4-05, 8-methoxy-4-(5-methyl-2-furyl)-1,2-bis[(1-methyl-4-piperidyl)methyl]-7-(3-pyrrolidin-1-ylpropoxy)pyrazolo[4,3-c]quinolin-3-one]: less than 5.00 and 5.00 to 6.00.
The matching figures for `COc1cc2c3c(c(-c4ccc(C)o4)nc2cc1OCCCN1CCCC1)CC[C@@H](CC1CCN(C)CC1)N3` (single isomer, unassigned) [Compound 2-10]: greater than 7.00 and 6.00 to 6.30.
In the same order, the values of `COc1ccc2c3c(c(-c4ccc(C)o4)nc2c1)CCCN3` [Compound 2-01, 8-methoxy-5-(5-methyl-2-furyl)-1,2,3,4-tetrahydrobenzo[h][1,6]naphthyridine] are less than 5.00 and 5.00 to 6.00.
As to `COc1cc2c3c(c(-c4ccc(C)o4)nc2cc1OCCCN1CCCC1)CCCN3CCCN1CCCC1` [Compound 2-04, 9-methoxy-5-(5-methyl-2-furyl)-8-(3-pyrrolidin-1-ylpropoxy)-1-(3-pyrrolidin-1-ylpropyl)-3,4-dihydro-2H-benzo[h][1,6]naphthyridine], the pIC50 is less than 5.00 at human G9a enzyme and 6.00 to 6.30 against human DNMT1.
For the compound `COc1cc2c3c(c(-c4ccc(C)o4)nc2cc1OCCCN1CCCC1)CC[C@H](CC1CCN(C)CC1)N3` (single isomer, unassigned) [Compound 2-09], the results for the pIC50 at human G9a enzyme and against human DNMT1 were greater than 7.00 and 6.00 to 6.30, respectively.

Source of the values: patent US10407423B2, “Compounds as inhibitors of DNA methyltransferases” (FUNDACIÓN PARA LA INVESTIGACIÓN MÉDICA APLICADA, priority 2015, dated 2019).
